From patent publication US6525001B1, “Substituted pyrimidine and pyridine herbicides” (Mid-American Commercialization Corporation, priority 1997, dated 2003)

Columns and labels:
Type in all cases: in vivo
Set-up in all cases: key: 0 is no effect; 10 is complete control
[1] = test system: bedstraw (Galium aparine); test: Test B pre-/postemergence
How it was run: (§1)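 Compounds in a surfactant-containing, non-phytotoxic solvent blend are applied to freshly planted seed (preemergence) and, concurrently, to seedlings of 2 to 18 cm at 1–4 leaves (postemergence). Plants stay in the greenhouse twelve to sixteen days and are then scored visually from 0 (no effect) to 10 (complete control).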

rape (Brassica napus) = test: Test B pre-/postemergence
How it was run: as §1

[2] = test system: bamyardgrass (Echinochloa crus-galli); test: Test B flood test
How it was run: (§2)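 Read-out is a visual response score from 0 (no effect) to 10 (complete control), assigned by comparison with untreated controls. Treatment was applied at the 2-leaf stage, and plants stayed in the greenhouse for twelve to sixteen days before scoring.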

[3] = test system: duck salad (Heteranthera limosa); test: Test B flood test
How it was run: as §2

rice (Oryza sativa) = test: Test B flood test
How it was run: as §2

[4] = test system: smallflower flatsedge (Cyperus difformis); test: Test B flood test
How it was run: as §2

[5] = Preemergence, Rate 62 g/ha, scale of 0 to 10
[6] = Rate 62 g/ha, Postemergence (flood test)
[7] = Rate 125 g/ha, Postemergence section (flood test species)
[8] = Rate 250 g/ha, Postemergence (flood test species)
[9] = Rate 500 g/ha, Postemergence (flood test species)
[10] = Rate 125 g/ha, Postemergence, flood test

Cc1cnc(-n2ccc(C(F)(F)F)n2)nc1C(=O)c1cccc(C(F)(F)F)c1 [Compound 59]
Plant response rating, Bedstraw [1, 5]: 3
Bedstraw plant response rating ([1]; Rate 62 g/ha, Postemergence): 7
Bedstraw plant response rating ([1]; Rate 125 g/ha, Postemergence): 7
Plant response rating, Bedstraw ([1]; Rate 125 g/ha, Preemergence): 6
Plant response rating, Bedstraw ([1]; Rate 250 g/ha, Postemergence): 8
Plant response rating, Bedstraw ([1]; Rate 250 g/ha, Preemergence): 6
Plant response rating, Bedstraw ([1]; Rate 500 g/ha, Postemergence): 9
Plant response rating, Bedstraw ([1]; Rate 500 g/ha, Preemergence): 8
Plant response rating, Rape (rape (Brassica napus); [5]): 5
Rape plant response rating (rape (Brassica napus); Rate 62 g/ha, Postemergence): 6
Rape plant response rating (rape (Brassica napus); Rate 125 g/ha, Postemergence): 7
Plant response rating, Rape (rape (Brassica napus); Rate 125 g/ha, Preemergence): 7
Plant response rating, Rape (rape (Brassica napus); Rate 250 g/ha, Postemergence): 7
Plant response rating, Rape (rape (Brassica napus); Rate 250 g/ha, Preemergence): 7
Plant response rating, Rape (rape (Brassica napus); Rate 500 g/ha, Postemergence): 7
Plant response rating, Rape (rape (Brassica napus); Rate 500 g/ha, Preemergence): 10
Barnyardgrass plant response rating [2, 6]: 3
Barnyardgrass plant response rating [2, 7]: 4
Plant response rating, Barnyardgrass [2, 8]: 5
Plant response rating, Barnyardgrass [2, 9]: 8
Ducksalad plant response rating [3, 6]: 3
Ducksalad plant response rating [3, 7]: 4
Plant response rating, Ducksalad [3, 8]: 6
Plant response rating, Ducksalad [3, 9]: 7
Rice plant response rating (rice (Oryza sativa); [6]): 2
Rice plant response rating (rice (Oryza sativa); [7]): 3
Plant response rating, Rice (rice (Oryza sativa); [8]): 4
Plant response rating, Rice (rice (Oryza sativa); [9]): 6
S. Flatsedge plant response rating [4, 6]: 7
S. Flatsedge plant response rating [4, 7]: 7
Plant response rating, S. Flatsedge [4, 8]: 8
Plant response rating, S. Flatsedge [4, 9]: 9

Cc1cnc(-c2ccc(Cl)cc2)nc1Cn1ccc(C(F)(F)F)n1 [Compound 6]
Plant response rating, Bedstraw ([1]; Rate 62 g/ha, Postemergence): 5
Bedstraw plant response rating ([1]; Rate 62 g/ha, Preemergence): 0
Plant response rating, Bedstraw ([1]; Rate 125 g/ha, Postemergence): 7
Bedstraw plant response rating ([1]; Rate 125 g/ha, Preemergence): 0
Plant response rating, Bedstraw ([1]; Rate 250 g/ha, Postemergence): 7
Plant response rating, Bedstraw ([1]; Rate 250 g/ha, Preemergence): 0
Plant response rating, Bedstraw ([1]; Rate 500 g/ha, Postemergence): 8
Plant response rating, Bedstraw ([1]; Rate 500 g/ha, Preemergence): 5
Plant response rating, Rape (rape (Brassica napus); Rate 62 g/ha, Postemergence): 8
Rape plant response rating (rape (Brassica napus); Rate 62 g/ha, Preemergence): 0
Plant response rating, Rape (rape (Brassica napus); Rate 125 g/ha, Postemergence): 8
Rape plant response rating (rape (Brassica napus); Rate 125 g/ha, Preemergence): 2
Plant response rating, Rape (rape (Brassica napus); Rate 250 g/ha, Postemergence): 8
Plant response rating, Rape (rape (Brassica napus); Rate 250 g/ha, Preemergence): 4
Plant response rating, Rape (rape (Brassica napus); Rate 500 g/ha, Postemergence): 8
Plant response rating, Rape (rape (Brassica napus); Rate 500 g/ha, Preemergence): 7
Plant response rating, Barnyardgrass [2, 6]: 0
Plant response rating, Barnyardgrass [2, 10]: 1
Plant response rating, Barnyardgrass [2, 8]: 2
Plant response rating, Barnyardgrass [2, 9]: 3
Plant response rating, Ducksalad [3, 6]: 0
Plant response rating, Ducksalad [3, 10]: 0
Plant response rating, Ducksalad [3, 8]: 0
Plant response rating, Ducksalad [3, 9]: 6
Plant response rating, Rice (rice (Oryza sativa); [6]): 1
Plant response rating, Rice (rice (Oryza sativa); [10]): 2
Plant response rating, Rice (rice (Oryza sativa); [8]): 2
Plant response rating, Rice (rice (Oryza sativa); [9]): 3
Plant response rating, S. Flatsedge [4, 6]: 3
Plant response rating, S. Flatsedge [4, 10]: 5
Plant response rating, S. Flatsedge [4, 8]: 7
Plant response rating, S. Flatsedge [4, 9]: 7
